How the values were obtained:
Format in all cases: in vivo
[1] = tested on: soybean plants expressing Pseudomonas fluorescens G336W mutant, FMP 27 and FMP 37; experiment: Tolerance to HPPD inhibitors of soybean plants expressing tolerant HPPD enzymes; conditions: T1 soybean plants; one week after application
Source text: (§1) Genes coding for the selected HPPD were obtained from a member of the group of organisms consisting of Blepharisma japonicum and Kordia algicida and cloned into an appropriate binary vector allowing the integration of DNA into the soybean genome, under the control of the CaMV35S promoter. For the respective cloning procedures, see WO2011076882 (PCT/EP2010/070567), Example 9; for Blepharisma japonicum (FMP37) and WO2011076889 (PCT/EP2010/070575), Example 9 for Kordia algicida (FMP27).
Between the sequence corresponding to the promoter and the sequence coding for the HPPD a DNA sequence coding for a transit peptide to the chloroplast was inserted, in order to add at the N-terminal extremity of the protein a target signal to allow the localization of the HPPD protein into the plant chloroplast. By using the vectors “pFCO112” (Blepharisma japonicum, WO2011076882), pFCO116 (Korida algicida, WO2011076889), and pFCO117” (see Example B2, above), soybean transformation was achieved as described in Example 10 of WO2011076882 (PCT/EP2010/070567) for Blepharisma japonicum (FMP37) and WO2011076889 (PCT/EP2010/070575) for Kordia algicida (FMP27). Seeds from TO events showing tolerance to tembotrione were harvested.
T1 Soybean seeds were transferred to single pots and grown under standard cultivation conditions, see WO2011076882.
Two weeks later, plants will be sprayed with several N-(tetrazol-4-yl)- or N-(triazol-3-yl)arylcarboxamides as defined above.

[2] = tested on: transgenic tobacco plants expressing mutant Pseudomonas fluorescens HPPD G336W (PfHPPD-G336W); experiment: Symptoms due to herbicide application on transgenic tobacco plants (damage classes 0-3); conditions: one week after application, PfHPPD-G336W line 646
Source text: (§2) Genes coding for the selected HPPD were obtained from a member of the group of organisms consisting of Avena sativa, Pseudomonas fluorescens mutant G336W, Blepharisma japonicum and Kordia algicida and cloned into the binary vector pBin19 allowing the integration of DNA into the tobacco genome, under the control of the CaMV35S promoter. For the cloning procedures, see A2 above for Avena sativa, see B2 above for Pseudomonas fluorescens, mutant G336W, see PCT/EP2010/070567 (published as WO 2011/076882, Example 5; for Blepharisma japonicum (FMP37) and see PCT/EP2010/070575, Example 5 for Kordia algicida (FMP27). Between the sequence corresponding to the promoter and the sequence coding for the HPPD a DNA sequence coding for a transit peptide to the chloroplast was inserted, in order to add at the N-terminal extremity of the protein a target signal to allow the localization of the HPPD protein into the plant chloroplast.
(§3) Seeds harvested from TO transformants will be put on standard soil for germination. Three weeks later plantlets (T1) will be transferred to single pots and grown under standard cultivation conditions (PCT/EP2010/070575, published as WO 2011/076889). Two weeks later, plants were sprayed with several N-(tetrazol-4-yl)- or N-(triazol-3-yl)arylcarboxamides as defined above.
(§4) Tables F1 to F5: Evaluation of the Symptoms Observed Due to the Application of the Herbicides on Transgenic Tobacco Plants, Expressing the Mutant Pseudomonas fluorescens HPPD G336W, the Avena HPPD (AvHPPD), the HPPD from Kordia algicida FMP27 or the HPPD from Blepharisma japonicum (FMP37), Compared to Non-Tranformed Tobacco Plants (“Wt”).
(§5) The herbicides (with “g Al/ha” meaning “g active ingredient/ha”) were applied on 8 to 10 plants originated from 1 to 3 independent transgenic events per transgene.
(§6) The symptoms were evaluated and classified as following: • 3=Very strong damage • 2=Strong damage • 1=Light and transient damage • 0=No damage

[3] = tested on: transgenic tobacco plants expressing Avena HPPD (AvHPPD); experiment: as above; conditions: one week after application, AvHPPD line 659
Source text: as §2, §3, §4, §5, §6

[4] = tested on: transgenic tobacco plants expressing HPPD from Blepharisma japonicum (FMP37); experiment: as above; conditions: one week after application
Source text: as §2, §3, §4, §5, §6

[5] = tested on: transgenic tobacco plants expressing HPPD from Kordia algicida FMP27; experiment: as above; conditions: one week after application
Source text: as §2, §3, §4, §5, §6

[6] = tested on: cotton plants expressing FMP 27 and FMP 37; experiment: Tolerance to HPPD inhibitors of cotton plants expressing tolerant HPPD enzymes; conditions: T1 cotton plants; one week after application
Source text: as §1, with “the cotton” for “the soybean”, “Example 11;” for “Example 9;”, “Example 11” for “Example 9”
Between the sequence corresponding to the promoter and the sequence coding for the HPPD a DNA sequence coding for a transit peptide to the chloroplast was inserted, in order to add at the N-terminal extremity of the protein a target signal to allow the localization of the HPPD protein into the plant chloroplast. Cotton transformation was achieved as described in Example 12 of WO2011076882 (PCT/EP2010/070567) for Blepharisma japonicum (FMP37) and WO2011076889 (PCT/EP2010/070575) for Kordia algicida (FMP27). Seeds from T0 events showing tolerance to tembotrione were harvested.
T1 Cotton seeds were transferred to single pots and grown under standard cultivation conditions, see WO2011076882 (PCT/EP2010/070567) for Blepharisma japonicum (FMP37) and WO2011076889 (PCT/EP2010/070575) for Kordia algicida (FMP27).
At least 4 weeks later, plants will be sprayed with several N-(tetrazol-4-yl)- or N-(triazol-3-yl)arylcarboxamides as defined above.

[7] = tested on: non-transformed tobacco plants (Wt); experiment: Symptoms due to herbicide application on tobacco plants (damage classes 0-3); conditions: one week after application
Source text: as §3, §4, §5, §6

[8] = tested on: transgenic tobacco plants expressing tolerant HPPD enzymes; experiment: Tolerance of tobacco plants expressing tolerant HPPD enzymes (all transgenes); conditions: for tolerance of the transgenic tobacco plants (symptoms due to application of the herbicide): T1 plants sprayed, evaluated one week after application; for sensitivity of transgenic tobacco plants compared to wild type (wt) plants: all tested independent lines, agronomically relevant dose
Source text: as §2, §3, §4, §5, §6

[9] = 50 g AI/ha, WP20 + oilseed rape methyl ester + ammonium sulfate

COCc1c(S(C)(=O)=O)ccc(C(=O)Nc2nnnn2C)c1Cl [Compound 4-253]
3: number of plants with Damage 0 (No damage) ([3]; 50 g AI/ha) | number of plants with Damage 0 (No damage) ([4]; 50 g AI/ha, FMP37 line 795) | number of plants with Damage 3 (Very strong damage) ([4]; 50 g AI/ha, FMP37 line 795) | number of plants with Damage 3 (Very strong damage) ([5]; 50 g AI/ha, FMP27 line 735)
superior tolerance: tolerance of transgenic plants compared to the wild-type soybean plants [1] | tolerance of transgenic plants compared to the wild-type cotton plants [6]
less sensitive: sensitivity of transgenic tobacco plants compared to wild type (wt) plants [8]
9: number of plants with Damage 0 (No damage) ([2]; 50 g AI/ha)
0: number of plants with Damage 1 (Light and transient damage) ([2]; 50 g AI/ha) | number of plants with Damage 2 (Strong damage) ([2]; 50 g AI/ha) | number of plants with Damage 1 (Light and transient damage) ([3]; 50 g AI/ha) | number of plants with Damage 2 (Strong damage) ([3]; 50 g AI/ha) | number of plants with Damage 2 (Strong damage) ([4]; 50 g AI/ha, FMP37 line 749) | number of plants with Damage 2 (Strong damage) ([4]; 50 g AI/ha, FMP37 line 795) | number of plants with Damage 3 (Very strong damage) ([5]; 50 g AI/ha, FMP27 line 733) | number of plants with Damage 2 (Strong damage) ([5]; 50 g AI/ha, FMP27 line 735) | number of plants with Damage 0 (No damage) [7, 9] | number of plants with Damage 1 (Light and transient damage) [7, 9] | number of plants with Damage 2 (Strong damage) [7, 9]
good tolerance: tolerance of the transgenic tobacco plants (symptoms due to application of the herbicide) [8]
6: number of plants with Damage 0 (No damage) ([4]; 50 g AI/ha, FMP37 line 754) | number of plants with Damage 0 (No damage) ([5]; 50 g AI/ha, FMP27 line 734)
2: number of plants with Damage 1 (Light and transient damage) ([4]; 50 g AI/ha, FMP37 line 749) | number of plants with Damage 1 (Light and transient damage) ([4]; 50 g AI/ha, FMP37 line 754) | number of plants with Damage 2 (Strong damage) ([5]; 50 g AI/ha, FMP27 line 733) | number of plants with Damage 2 (Strong damage) ([5]; 50 g AI/ha, FMP27 line 734) | number of plants with Damage 0 (No damage) ([5]; 50 g AI/ha, FMP27 line 735)
7: number of plants with Damage 3 (Very strong damage) ([3]; 50 g AI/ha) | number of plants with Damage 0 (No damage) ([4]; 50 g AI/ha, FMP37 line 749)
5: number of plants with Damage 1 (Light and transient damage) ([5]; 50 g AI/ha, FMP27 line 735)
10: number of plants with Damage 3 (Very strong damage) [7, 9]
4: number of plants with Damage 1 (Light and transient damage) ([4]; 50 g AI/ha, FMP37 line 795) | number of plants with Damage 0 (No damage) ([5]; 50 g AI/ha, FMP27 line 733) | number of plants with Damage 1 (Light and transient damage) ([5]; 50 g AI/ha, FMP27 line 733)
1: number of plants with Damage 3 (Very strong damage) ([2]; 50 g AI/ha) | number of plants with Damage 3 (Very strong damage) ([4]; 50 g AI/ha, FMP37 line 749) | number of plants with Damage 2 (Strong damage) ([4]; 50 g AI/ha, FMP37 line 754) | number of plants with Damage 3 (Very strong damage) ([4]; 50 g AI/ha, FMP37 line 754) | number of plants with Damage 1 (Light and transient damage) ([5]; 50 g AI/ha, FMP27 line 734) | number of plants with Damage 3 (Very strong damage) ([5]; 50 g AI/ha, FMP27 line 734)

CCOc1c(S(C)(=O)=O)ccc(C(=O)Nc2nnnn2C)c1Cl [Compound 4-278]
2: number of plants with Damage 1 (Light and transient damage) ([5]; FMP27 line 735, 50 g Al/ha) | number of plants with Damage 3 (Very strong damage) ([5]; FMP27 line 735, 50 g Al/ha)
less sensitive: sensitivity of transgenic tobacco plants compared to wild type (wt) plants [8]
5: number of plants with Damage 0 (No damage) ([4]; FMP37 line 749, 50 g Al/ha) | number of plants with Damage 0 (No damage) ([4]; FMP37 line 754, 50 g Al/ha)
6: number of plants with Damage 0 (No damage) ([2]; 50 g Al/ha) | number of plants with Damage 0 (No damage) ([5]; FMP27 line 733, 50 g Al/ha) | number of plants with Damage 0 (No damage) ([5]; FMP27 line 734, 50 g Al/ha) | number of plants with Damage 0 (No damage) ([5]; FMP27 line 735, 50 g Al/ha)
4: number of plants with Damage 1 (Light and transient damage) ([4]; FMP37 line 749, 50 g Al/ha) | number of plants with Damage 1 (Light and transient damage) ([4]; FMP37 line 754, 50 g Al/ha) | number of plants with Damage 0 (No damage) ([4]; FMP37 line 795, 50 g Al/ha) | number of plants with Damage 1 (Light and transient damage) ([5]; FMP27 line 733, 50 g Al/ha)
10: number of plants with Damage 3 (Very strong damage) ([7]; 50 g Al/ha)
good tolerance: tolerance of the transgenic tobacco plants (symptoms due to application of the herbicide) [8]
superior tolerance: tolerance of transgenic plants compared to the wild-type soybean plants [1] | tolerance of transgenic plants compared to the wild-type cotton plants [6]
0: number of plants with Damage 2 (Strong damage) ([2]; 50 g Al/ha) | number of plants with Damage 1 (Light and transient damage) ([3]; 50 g Al/ha) | number of plants with Damage 2 (Strong damage) ([3]; 50 g Al/ha) | number of plants with Damage 2 (Strong damage) ([4]; FMP37 line 749, 50 g Al/ha) | number of plants with Damage 2 (Strong damage) ([4]; FMP37 line 754, 50 g Al/ha) | number of plants with Damage 2 (Strong damage) ([4]; FMP37 line 795, 50 g Al/ha) | number of plants with Damage 2 (Strong damage) ([5]; FMP27 line 733, 50 g Al/ha) | number of plants with Damage 3 (Very strong damage) ([5]; FMP27 line 733, 50 g Al/ha) | number of plants with Damage 2 (Strong damage) ([5]; FMP27 line 734, 50 g Al/ha) | number of plants with Damage 2 (Strong damage) ([5]; FMP27 line 735, 50 g Al/ha) | number of plants with Damage 0 (No damage) ([7]; 50 g Al/ha) | number of plants with Damage 1 (Light and transient damage) ([7]; 50 g Al/ha) | number of plants with Damage 2 (Strong damage) ([7]; 50 g Al/ha)
3: number of plants with Damage 1 (Light and transient damage) ([2]; 50 g Al/ha) | number of plants with Damage 1 (Light and transient damage) ([4]; FMP37 line 795, 50 g Al/ha) | number of plants with Damage 3 (Very strong damage) ([4]; FMP37 line 795, 50 g Al/ha) | number of plants with Damage 1 (Light and transient damage) ([5]; FMP27 line 734, 50 g Al/ha)
1: number of plants with Damage 3 (Very strong damage) ([2]; 50 g Al/ha) | number of plants with Damage 3 (Very strong damage) ([3]; 50 g Al/ha) | number of plants with Damage 3 (Very strong damage) ([4]; FMP37 line 749, 50 g Al/ha) | number of plants with Damage 3 (Very strong damage) ([4]; FMP37 line 754, 50 g Al/ha) | number of plants with Damage 3 (Very strong damage) ([5]; FMP27 line 734, 50 g Al/ha)
9: number of plants with Damage 0 (No damage) ([3]; 50 g Al/ha)

Reference: US9078446B2, “Use of N-(tetrazol-4-yl)- or N-(triazol-3-yl)arylcarboxamides or their salts for controlling unwanted plants in areas of transgenic crop plants being tolerant to HPPD inhibitor herbicides” (BAYER INTELLECTUAL PROPERTY GMBH, priority 2011, dated 2015)
